Reference: ChEMBL document CHEMBL5291721, “A preclinical secondary pharmacology resource illuminates target-adverse drug reaction associations of marketed drugs” (Nat Commun, 2023)

Assays:
[1] = molecular target: T1, B2 bradykinin receptor (Homo sapiens, UniProt P30411)
T1 sequence (P30411 whole entry): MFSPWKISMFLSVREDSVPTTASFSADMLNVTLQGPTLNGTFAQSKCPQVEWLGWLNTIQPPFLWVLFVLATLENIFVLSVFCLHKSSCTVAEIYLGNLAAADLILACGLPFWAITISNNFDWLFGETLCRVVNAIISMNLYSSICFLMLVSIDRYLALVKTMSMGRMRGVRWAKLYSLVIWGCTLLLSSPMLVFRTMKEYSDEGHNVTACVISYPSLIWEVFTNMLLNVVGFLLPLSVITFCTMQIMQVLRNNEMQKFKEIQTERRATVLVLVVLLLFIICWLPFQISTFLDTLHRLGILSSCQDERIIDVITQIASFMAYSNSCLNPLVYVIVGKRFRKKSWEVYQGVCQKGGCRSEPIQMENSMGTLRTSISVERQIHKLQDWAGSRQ

[2] = molecular target: T2, Equilibrative nucleoside transporter 1 (Homo sapiens, UniProt Q99808)
T2 sequence (Q99808 whole entry): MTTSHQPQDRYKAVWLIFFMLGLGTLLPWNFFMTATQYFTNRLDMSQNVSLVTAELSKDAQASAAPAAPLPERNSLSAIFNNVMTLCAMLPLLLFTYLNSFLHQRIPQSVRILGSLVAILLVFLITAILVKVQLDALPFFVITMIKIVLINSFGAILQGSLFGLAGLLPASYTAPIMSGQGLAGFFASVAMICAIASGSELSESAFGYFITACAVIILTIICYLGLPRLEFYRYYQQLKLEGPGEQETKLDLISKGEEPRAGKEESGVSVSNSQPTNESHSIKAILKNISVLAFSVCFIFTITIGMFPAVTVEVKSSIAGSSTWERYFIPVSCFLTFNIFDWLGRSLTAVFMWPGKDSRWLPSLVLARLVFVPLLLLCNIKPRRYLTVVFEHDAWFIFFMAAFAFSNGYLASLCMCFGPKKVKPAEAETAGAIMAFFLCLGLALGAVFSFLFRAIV

[3] = molecular target: T3, 5-hydroxytryptamine receptor 3A (Homo sapiens, UniProt P46098); assay type: functional
T3 sequence (P46098 whole entry): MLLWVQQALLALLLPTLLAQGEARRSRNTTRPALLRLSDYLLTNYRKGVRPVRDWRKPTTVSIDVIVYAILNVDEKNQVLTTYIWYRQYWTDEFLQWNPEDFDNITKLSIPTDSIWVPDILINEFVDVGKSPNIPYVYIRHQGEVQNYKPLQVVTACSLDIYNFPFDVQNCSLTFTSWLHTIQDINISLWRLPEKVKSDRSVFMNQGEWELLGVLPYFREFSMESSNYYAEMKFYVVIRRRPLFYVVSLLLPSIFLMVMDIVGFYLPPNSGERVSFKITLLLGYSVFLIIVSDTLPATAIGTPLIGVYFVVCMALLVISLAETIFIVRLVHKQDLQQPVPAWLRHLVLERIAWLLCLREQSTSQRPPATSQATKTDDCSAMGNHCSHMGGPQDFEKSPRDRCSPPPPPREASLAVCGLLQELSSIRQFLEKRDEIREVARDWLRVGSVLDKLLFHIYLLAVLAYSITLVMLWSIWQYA

[4] = molecular target: Adenosine receptor A2a (Homo sapiens, UniProt P29274)
Chain of Adenosine receptor A2a (P29274 whole entry): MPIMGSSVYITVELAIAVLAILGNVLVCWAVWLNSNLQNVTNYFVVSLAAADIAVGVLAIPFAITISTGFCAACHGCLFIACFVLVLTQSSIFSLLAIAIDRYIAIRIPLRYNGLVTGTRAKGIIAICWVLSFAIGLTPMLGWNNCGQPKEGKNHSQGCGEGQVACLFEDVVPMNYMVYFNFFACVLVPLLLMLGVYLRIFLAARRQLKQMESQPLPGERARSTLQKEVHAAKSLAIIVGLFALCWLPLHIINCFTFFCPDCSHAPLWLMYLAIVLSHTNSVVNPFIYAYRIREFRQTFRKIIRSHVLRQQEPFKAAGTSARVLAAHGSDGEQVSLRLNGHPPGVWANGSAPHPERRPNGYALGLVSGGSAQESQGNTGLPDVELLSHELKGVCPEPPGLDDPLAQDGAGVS

[5] = molecular target: 5-hydroxytryptamine receptor 2A (Homo sapiens, UniProt P28223); assay type: functional, cell-based
Chain of 5-hydroxytryptamine receptor 2A (P28223 whole entry): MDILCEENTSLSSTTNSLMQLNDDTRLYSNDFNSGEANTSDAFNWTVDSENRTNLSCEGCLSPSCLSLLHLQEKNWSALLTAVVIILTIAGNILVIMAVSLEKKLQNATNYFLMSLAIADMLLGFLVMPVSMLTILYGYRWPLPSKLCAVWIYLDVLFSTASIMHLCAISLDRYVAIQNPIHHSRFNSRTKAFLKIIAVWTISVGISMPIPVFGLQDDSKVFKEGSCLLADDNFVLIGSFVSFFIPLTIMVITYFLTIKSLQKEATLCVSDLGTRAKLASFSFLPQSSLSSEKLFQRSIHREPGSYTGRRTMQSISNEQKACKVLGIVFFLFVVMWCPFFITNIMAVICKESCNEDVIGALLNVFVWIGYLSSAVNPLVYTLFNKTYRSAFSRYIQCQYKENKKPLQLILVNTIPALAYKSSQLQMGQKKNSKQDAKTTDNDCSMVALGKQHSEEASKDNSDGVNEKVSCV

[6] = molecular target: Vasopressin V1a receptor (Homo sapiens, UniProt P37288)
Chain of Vasopressin V1a receptor (P37288 whole entry): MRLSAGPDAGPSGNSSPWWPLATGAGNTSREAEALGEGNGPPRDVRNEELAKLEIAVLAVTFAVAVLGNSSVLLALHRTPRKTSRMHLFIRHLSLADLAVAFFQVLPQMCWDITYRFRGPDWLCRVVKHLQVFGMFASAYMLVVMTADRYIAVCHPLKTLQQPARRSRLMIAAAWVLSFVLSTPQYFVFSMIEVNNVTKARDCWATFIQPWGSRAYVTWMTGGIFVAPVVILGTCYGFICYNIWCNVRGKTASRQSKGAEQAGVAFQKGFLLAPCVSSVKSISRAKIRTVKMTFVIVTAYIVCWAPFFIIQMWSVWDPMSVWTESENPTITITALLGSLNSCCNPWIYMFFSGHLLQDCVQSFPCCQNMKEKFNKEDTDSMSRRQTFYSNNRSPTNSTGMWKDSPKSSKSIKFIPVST

[7] = molecular target: T4, Adenosine receptor A1 (Homo sapiens, UniProt P30542)
T4 sequence (P30542 whole entry): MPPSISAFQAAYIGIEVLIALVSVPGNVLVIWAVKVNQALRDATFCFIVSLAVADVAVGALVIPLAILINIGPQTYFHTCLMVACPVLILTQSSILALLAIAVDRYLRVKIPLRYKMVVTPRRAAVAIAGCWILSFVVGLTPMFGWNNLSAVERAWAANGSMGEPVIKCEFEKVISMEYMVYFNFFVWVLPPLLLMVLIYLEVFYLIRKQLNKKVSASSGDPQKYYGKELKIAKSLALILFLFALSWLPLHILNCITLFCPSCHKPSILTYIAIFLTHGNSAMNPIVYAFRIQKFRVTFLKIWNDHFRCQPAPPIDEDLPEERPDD

[8] = molecular target: Beta-1 adrenergic receptor (Homo sapiens, UniProt P08588); assay type: functional
Chain of Beta-1 adrenergic receptor (P08588 whole entry): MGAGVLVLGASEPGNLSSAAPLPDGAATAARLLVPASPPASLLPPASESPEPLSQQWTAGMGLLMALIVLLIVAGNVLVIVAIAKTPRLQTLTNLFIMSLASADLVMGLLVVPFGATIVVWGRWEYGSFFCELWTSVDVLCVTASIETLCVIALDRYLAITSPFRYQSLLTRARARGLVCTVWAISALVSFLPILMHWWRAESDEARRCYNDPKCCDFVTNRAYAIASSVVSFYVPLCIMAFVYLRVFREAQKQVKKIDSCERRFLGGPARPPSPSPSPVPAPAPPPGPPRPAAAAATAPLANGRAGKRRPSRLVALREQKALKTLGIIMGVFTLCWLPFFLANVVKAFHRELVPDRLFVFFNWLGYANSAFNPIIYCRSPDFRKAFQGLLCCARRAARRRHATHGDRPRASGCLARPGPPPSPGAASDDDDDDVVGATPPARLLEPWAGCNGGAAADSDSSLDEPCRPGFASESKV

[9] = molecular target: Cannabinoid receptor 1 (Homo sapiens, UniProt P21554); assay type: functional, cell-based
Chain of Cannabinoid receptor 1 (P21554 whole entry): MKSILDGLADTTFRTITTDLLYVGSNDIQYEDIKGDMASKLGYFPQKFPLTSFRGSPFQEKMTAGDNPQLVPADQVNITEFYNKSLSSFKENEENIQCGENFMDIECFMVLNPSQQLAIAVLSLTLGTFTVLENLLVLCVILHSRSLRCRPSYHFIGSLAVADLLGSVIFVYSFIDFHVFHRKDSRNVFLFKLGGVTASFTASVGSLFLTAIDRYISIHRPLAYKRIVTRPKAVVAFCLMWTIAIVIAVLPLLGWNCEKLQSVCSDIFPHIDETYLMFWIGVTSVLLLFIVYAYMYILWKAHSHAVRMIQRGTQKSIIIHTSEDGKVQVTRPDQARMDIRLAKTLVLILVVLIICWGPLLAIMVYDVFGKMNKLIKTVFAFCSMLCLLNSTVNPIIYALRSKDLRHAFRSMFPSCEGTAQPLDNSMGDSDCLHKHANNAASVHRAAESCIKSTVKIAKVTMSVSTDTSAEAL

[10] = molecular target: T5, Endothelin-1 receptor (Homo sapiens, UniProt P25101)
T5 sequence (P25101 whole entry): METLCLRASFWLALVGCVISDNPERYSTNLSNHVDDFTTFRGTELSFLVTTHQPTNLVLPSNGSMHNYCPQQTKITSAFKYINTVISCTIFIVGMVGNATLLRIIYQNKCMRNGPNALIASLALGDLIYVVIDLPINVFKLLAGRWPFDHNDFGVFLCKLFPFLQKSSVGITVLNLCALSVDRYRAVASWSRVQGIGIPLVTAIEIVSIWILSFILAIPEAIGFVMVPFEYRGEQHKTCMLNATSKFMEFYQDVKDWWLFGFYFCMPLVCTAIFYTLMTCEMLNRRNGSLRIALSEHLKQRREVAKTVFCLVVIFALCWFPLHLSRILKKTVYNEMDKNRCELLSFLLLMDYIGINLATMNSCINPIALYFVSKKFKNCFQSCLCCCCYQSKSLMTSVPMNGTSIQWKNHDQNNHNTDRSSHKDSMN
Further: assay procedure not described here.

| SMILES | AC50 [1] [µM] | AC50 [2] [µM] | AC50 [3] [µM] | AC50 [4] [µM] | AC50 [5] [µM] | AC50 [6] [µM] | AC50 [7] [µM] | AC50 [8] [µM] | AC50 [9] [µM] | AC50 [10] [µM] |
| --- | --- | --- | --- | --- | --- | --- | --- | --- | --- | --- |
| COC(=O)[C@H]1[C@H]2C[C@@H]3c4[nH]c5cc(OC)ccc5c4CCN3C[C@H]2C[C@@H](OC(=O)/C=C/c2cc(OC)c(OC)c(OC)c2)[C@@H]1OC [RESCINNAMINE] | > 10 | > 30 | > 30 | > 30 | > 10 | > 10 | > 30 | > 10 | – | – |
| O=C(O)CCCCCCCC(=O)O [AZELAIC ACID] | > 10 | > 10 | > 30 | > 10 | > 10 | > 10 | > 10 | > 10 | – | – |
| O=C(O)C1=C(CSc2nnnn2CS(=O)(=O)O)CS[C@@H]2[C@H](NC(=O)[C@H](O)c3ccccc3)C(=O)N12 [CEFONICID] | > 30 | > 30 | > 30 | > 30 | > 30 | > 30 | > 30 | > 30 | – | – |
| O=C(O)[C@H](CC(=O)N1C[C@H]2CCCC[C@H]2C1)Cc1ccccc1 [MITIGLINIDE] | > 10 | > 10 | > 30 | > 10 | > 10 | > 10 | > 10 | > 10 | – | – |
| CN1C(=O)OC(C)(C)C1=O [TRIMETHADIONE] | > 10 | > 10 | > 30 | > 10 | – | – | > 10 | > 10 | > 30 | – |
| COc1ccc2c3c1O[C@H]1[C@@H](O)C=C[C@H]4[C@@H](C2)N(C)CC[C@@]341 [CODEINE] | > 30 | > 30 | > 10 | > 30 | – | > 30 | > 30 | 0.9 | > 30 | > 30 |
| Cn1c(=O)c2c(ncn2CC2OCCO2)n(C)c1=O [DOXOFYLLINE] | > 30 | > 30 | > 30 | > 30 | – | – | > 30 | > 30 | > 30 | > 30 |
| N#Cc1ccc([C@H]2CCc3cncn32)c(F)c1 [OSILODROSTAT] | – | > 10 | > 10 | > 10 | – | > 10 | > 10 | > 10 | – | > 10 |
| CC=CC(=O)N(CC)c1ccccc1C | > 10 | > 10 | > 30 | > 10 | – | – | > 10 | > 10 | > 30 | – |
| CCOC(=O)OC(C)OC1=C(C(=O)Nc2ccccn2)N(C)S(=O)(=O)c2ccccc21 (stereo not given) [AMPIROXICAM] | > 30 | > 30 | > 30 | > 30 | – | – | > 30 | > 30 | > 30 | > 30 |
| NCC[C@H](O)C(=O)N[C@@H]1C[C@H](N)[C@@H](O[C@H]2O[C@H](CN)[C@@H](O)[C@H](O)[C@H]2O)[C@H](O)[C@H]1O[C@H]1O[C@H](CO)[C@@H](O)[C@H](N)[C@H]1O [AMIKACIN] | > 10 | > 10 | > 30 | > 10 | – | – | > 10 | > 10 | – | – |
| C[C@](N)(Cc1ccc(O)c(O)c1)C(=O)O [METHYLDOPA] | > 10 | > 10 | > 30 | > 30 | – | – | > 30 | > 10 | – | – |
